From the RepoRT retention time repository (doi:10.1021/acs.analchem.1c00972)

What was measured:
[1] = RP, Waters ACQUITY UPLC BEH C18, 100 × 1 mm, 1.7 µm, 50 °C, 0.3 mL/min, estimated dead time 0.17 min; A: water + 10 mM ammonium bicarbonate; B: 10% water + 90% methanol + 10 mM ammonium bicarbonate; gradient (min/%B) 0/0 15/100 21/100 22/0 30/0; settings: stereoisomer not certain
[2] = RP, Waters ACQUITY UPLC BEH C18, 100 × 1 mm, 1.7 µm, 50 °C, 0.3 mL/min, estimated dead time 0.17 min; A: water + 0.1% formic acid + 20 mM ammonium formate; B: methanol + 0.1% formic acid + 20 mM ammonium formate; gradient (min/%B) 0/0 15/100 21/100 22/0 30/0; settings: stereoisomer not certain

SMILES	LC retention time [1]	LC retention time [2]
CCN(CC)C(=O)SCc1ccc(Cl)cc1 [Thiobencarb]	16.4 min	16 min
CC(=O)C1(O)CCC2C3CC(C)C4=CC(=O)CCC4(C)C3CCC21C (configuration not stated) [Medroxyprogesterone]	15.5 min	15.2 min
CC(C)Nc1nc(NC(C)C)[nH]c(=O)n1 [Propazine-2-hydroxy]	12.2 min	9.88 min
O=C(Cc1ccccc1)NC(=NOCC1CC1)c1c(C(F)(F)F)ccc(F)c1F [Cyflufenamid]	16.3 min	16 min
CN(C)c1nc(=O)n(C2CCCCC2)c(=O)n1C [Hexazinone]	11.9 min	11.7 min
CCOC(=O)C1(c2ccccc2)CCN(C)CC1 [Meperidine]	14.2 min	9.63 min
Oc1ccc(C(c2ccc(O)cc2)(C(F)(F)F)C(F)(F)F)cc1 [Bisphenol AF]	14.7 min	15.9 min
Cn1cnc2c1c(=O)[nH]c(=O)n2C [Theobromine]	5.86 min	5.9 min
COCCc1ccc(OCC(O)CNC(C)C)cc1 (configuration not stated) [Metoprolol]	12.4 min	9.58 min
Cn1cc[nH]c1=S [Methimazol]	2.82 min	2.75 min
COCCOCCOCCO [2-(2-(2-Methoxyethoxy)ethoxy)ethanol]	6.68 min	6.67 min
O=C1Nc2ccc(Cl)cc2C(c2ccccc2)=NC1O (configuration not stated) [Oxazepam]	13.5 min	13.2 min
OC(Cn1cncn1)(Cn1cncn1)c1ccc(F)cc1F [fluconazole]	9.58 min	9.47 min
C=C(C)C1C2OC(=O)C1C1(O)CC3OC34C(=O)OC2C14C (configuration not stated) [Picrotoxinin]	9.36 min	9.25 min
O=C(Oc1ccccc1)c1ccccc1C(=O)Oc1ccccc1 [Diphenylphthalate]	16 min	15.7 min
CC(C)(C)C(=O)C(Oc1ccc(Cl)cc1)n1ccnc1 (configuration not stated) [Climbazole]	15.1 min	13.2 min
CC(C)(C)C(O)C(Cc1ccc(Cl)cc1Cl)n1cncn1 (configuration not stated) [Dichlobutrazol]	15.8 min	15.4 min
CCCN(CCC)CCC [Tripropylamine]	12.5 min	6.53 min
CC=C1C2C=C(C)CC1(N)c1ccc(=O)[nH]c1C2 (configuration not stated) [Huperzin A]	11.1 min	7.5 min
CC(CN1c2ccccc2Sc2ccccc21)N(C)C (configuration not stated) [Promethazin]	16.8 min	12.5 min
CC(=O)OC12COC1CC(O)C1(C)C(=O)C(O)C3=C(C)C(O)CC(O)(C(OC(=O)c4ccccc4)C21)C3(C)C (configuration not stated) [10-Deacetylbaccatin III]	12 min	11.7 min
COc1c(C(C)(C)C)cc([N+](=O)[O-])c(C)c1[N+](=O)[O-] [Musk ambrette]	6.58 min	8.38 min

SMILES	LC retention time [1]	LC retention time [2]
CCCC1OC2CC3C4CCC5=CC(=O)C=CC5(C)C4C(O)CC3(C)C2(C(=O)CO)O1 (configuration not stated) [Budesonide]	15.1 min	14.8 min
Nc1cccc2c(N)cccc12 [1,5-Naphthalenediamine]	6.92 min	2.7 min
OCCN1CCN(CCC=C2c3ccccc3Sc3ccc(C(F)(F)F)cc32)CC1 [Flupentixol]	17.3 min	14.7 min
COCC(=O)N(c1c(C)cccc1C)N1CCOC1=O [Oxadixyl]	11.2 min	11 min
CC1=CC(=O)CC(C)(C)C1 [Isophorone]	11.9 min	11.7 min
O=[N+]([O-])N=C1NCCN1Cc1ccc(Cl)nc1 [Imidacloprid]	8.74 min	8.69 min
COc1cc2nc(N3CCN(C(=O)C4COc5ccccc5O4)CC3)nc(N)c2cc1OC (configuration not stated) [Doxazosin]	14 min	11.6 min
C=CCOC(=O)c1ccccc1C(=O)OCC=C [Diallylphthalate]	14.5 min	14.2 min
CC(NC(C)(C)C)C(=O)c1cccc(Cl)c1 (configuration not stated) [Bupropion]	15.6 min	10.5 min
O=C(Nc1ccc(Cl)cc1C(O)c1ccccc1)c1ccncc1 (configuration not stated) [Inabenfide]	14.2 min	13.9 min
COC1C=COC2(C)Oc3c(C)c(O)c4c(O)c(c5c(nc6cc(C)ccn65)c4c3C2=O)NC(=O)C(C)=CC=CC(C)C(O)C(C)C(O)C(C)C(OC(C)=O)C1C (configuration not stated) [Rifaximin]	14.6 min	14.7 min
CC(C)CCCCCCCOC(=O)c1ccccc1C(=O)OCCCCCCCC(C)C [Di-iso-decylphthalate]	21.3 min	20 min
CN1C(=O)CN=C(C2=CCCCC2)c2cc(Cl)ccc21 [Tetrazepam]	15.7 min	15 min
COc1cc2c(cc1OC)C13CCN4CC5=CCOC6CC(=O)N2C1C6C5CC43 (configuration not stated) [Brucine]	12.1 min	8.1 min
CC1CCc2cc(F)cc3c(=O)c(C(=O)O)cn1c23 (configuration not stated) [Flumequine]	8.91 min	11.8 min
CN(Cc1cnc2nc(N)nc(N)c2n1)c1ccc(C(=O)NC(CCC(=O)O)C(=O)O)cc1 (configuration not stated) [Methotrexate]	6.74 min	7.89 min
O=c1[nH]c2ccccc2n1CCCN1CCC(n2c(=O)[nH]c3cc(Cl)ccc32)CC1 [Domperidone]	14.8 min	10.7 min
c1ccc(-c2ccc(C(c3ccccc3)n3ccnc3)cc2)cc1 (configuration not stated) [Bifonazol]	16.7 min	13.9 min
COC1CC(OC2CCC3(C)C(CCC4C3CCC3(C)C(C5=CC(=O)OC5)C(OC(C)=O)CC43O)C2)OC(C)C1O (configuration not stated) [Oleandrin]	14.7 min	14.4 min
CC(=O)C1(O)CCC2C3CCC4=CC(=O)CCC4(C)C3CCC21C (stereo not drawn) [17alpha-Hydroxyprogesterone]	14.8 min	14.5 min
COc1ccc(C2Sc3ccccc3N(CCN(C)C)C(=O)C2OC(C)=O)cc1 (configuration not stated) [Diltiazem]	15.5 min	11.8 min
Nc1c(Cl)cc(C(F)(F)F)cc1Cl [2,6-Dichloro-4-trifluoromethylaniline]	15.9 min	16.2 min

SMILES	LC retention time [1]	LC retention time [2]
CNCCC(Oc1cccc2ccccc12)c1cccs1 (configuration not stated) [Duloxetine]	15.4 min	13.2 min
CC1CCCC(=O)CCCC=Cc2cc(O)cc(O)c2C(=O)O1 (configuration not stated) [Zearalenone]	14.1 min	14.4 min
CC(C)c1ccc2sc3ccccc3c(=O)c2c1 [2-Isopropylthioxanthone]	17.5 min	17.2 min
CC=C(C)C(=O)OC1CCN2CC=C(COC(=O)C(O)(C(C)OC)C(C)(C)O)C12 (configuration not stated) [Lasiocarpine]	13.9 min	10.4 min
CC(C)NCC(O)COc1ccc(C(=O)O)cc1 (configuration not stated) [Bisoprolol_M3]	10.4 min	6.96 min
COC1CC(CC2CCC(C)C(C(C)C(=O)O)O2)OC2(OC(C)(C3CCC(C)(C4OC(C5OC(O)(CO)C(C)CC5C)CC4C)O3)CC2C)C1C (configuration not stated) [Nigericin]	19.7 min	18.8 min
COCCCCC(=NOCCN)c1ccc(C(F)(F)F)cc1 [Fluvoxamine]	15.3 min	13.5 min
CNC(=O)Oc1cccc2c1OC(C)(C)C2 [Carbofuran]	12 min	11.8 min
COCCCNc1nc(NC(C)C)nc(SC)n1 [Methoprothryne]	14.2 min	13.1 min
NCCc1ccc(O)c(O)c1 [Dopamine]	6.92 min	6.88 min
O=c1c2cc(F)ccc2nc(-n2cncn2)n1-c1ccc(Cl)cc1Cl [Fluquinconazole]	15 min	14.7 min
COC(=O)c1ccc(C(=O)OC)cc1 [Dimethyl terephthalate]	20.7 min	11.1 min
COC(=O)C1C(O)CCC2CN3CCc4c([nH]c5ccccc45)C3CC21 (configuration not stated) [Yohimbine]	14.1 min	9.26 min
CN1CCc2cc3c(cc2C(=O)Cc2ccc4c(c2C1)OCO4)OCO3 [Protopin]	13.6 min	9.28 min
CCCN(CCOc1c(Cl)cc(Cl)cc1Cl)C(N)=O	16.2 min	15.9 min
CCOP(=O)(SC(C)CC)N1CCSC1=O (configuration not stated) [Fosthiazate]	12.8 min	12.6 min
CN(C)C(=O)NC1CCCCC1 [3-Cyclohexyl-1,1-dimethylurea]	11.1 min	10.9 min
Cn1c(=O)nc(NC(C)(C)C)[nH]c1=O	6.95 min	8.56 min
CC(=O)C1CCC2C3CCC4=CC(=O)CCC4(C)C3CCC12C (configuration not stated) [Progesterone]	15.9 min	15.5 min
CCCCCCCOC(=O)c1ccccc1C(=O)OCCCCCCC [Di-n-heptylphthalate]	19.4 min	18.9 min
Cc1nc2n(c(=O)c1CCN1CCC(c3noc4cc(F)ccc34)CC1)CCCC2 [Risperidone]	14.7 min	10.5 min
CNCCCC12CCC(c3ccccc31)c1ccccc12 [Maprotiline]	15.4 min	12.8 min
